{"source": "paper PMC6934184", "about": "“Selective DNA-PKcs inhibition extends the therapeutic index of localized radiotherapy and chemotherapy” (The Journal of Clinical Investigation, 2019)", "target": "T1, BLK (Homo sapiens, UniProt P51451)", "T1 construct": "purchased Thermo Fisher Scientific (Life Technologies) SelectScreen", "T1 sequence (P51451 whole entry)": "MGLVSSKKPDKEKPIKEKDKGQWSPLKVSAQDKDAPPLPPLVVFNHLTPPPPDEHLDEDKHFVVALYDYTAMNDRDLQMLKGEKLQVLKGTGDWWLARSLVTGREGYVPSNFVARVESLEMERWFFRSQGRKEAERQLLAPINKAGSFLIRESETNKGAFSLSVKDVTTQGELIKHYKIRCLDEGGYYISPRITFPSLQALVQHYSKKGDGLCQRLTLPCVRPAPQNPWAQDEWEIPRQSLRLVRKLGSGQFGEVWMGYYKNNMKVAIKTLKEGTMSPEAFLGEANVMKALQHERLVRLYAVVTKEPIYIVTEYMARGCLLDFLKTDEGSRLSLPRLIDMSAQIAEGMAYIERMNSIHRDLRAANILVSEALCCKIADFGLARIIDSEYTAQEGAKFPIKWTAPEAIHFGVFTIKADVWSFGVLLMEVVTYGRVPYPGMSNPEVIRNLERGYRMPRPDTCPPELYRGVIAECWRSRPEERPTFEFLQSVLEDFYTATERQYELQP", "assay": "SelectScreen Z'LYTE", "assay_type": "biochemical", "procedure,_shortened": "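NU5455 was profiled across the SelectScreen Broad panel of kinase activity and binding assays. Z'LYTE reactions such as CSF1R ran at apparent Km ATP, while the Adapta CAMK1 assay used ATP listed as 10. Values are given as percent.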", "data": [{"compound": "CN(C(=O)CN1CCOCC1)c1ccc2sc3c(-c4cccc5c(=O)cc(N6CC7CCC(C6)O7)oc45)cccc3c2c1", "note": "[NU5455]", "values": [{"measurement": "inhibition at 1 µM", "value": -8.9, "unit": "%"}]}]}
